Data published in ChEMBL document CHEMBL1201862, “PubChem BioAssay data set” (2004).
The source made the active and inactive calls.

Experiments:
Cytochrome P450 1A2 = target: T1, Cytochrome P450 1A2 (Homo sapiens, UniProt P05177);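 further: PubChem cytochrome P450 panel assay, CYP1A2 panel member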
T1 sequence (P05177 whole entry): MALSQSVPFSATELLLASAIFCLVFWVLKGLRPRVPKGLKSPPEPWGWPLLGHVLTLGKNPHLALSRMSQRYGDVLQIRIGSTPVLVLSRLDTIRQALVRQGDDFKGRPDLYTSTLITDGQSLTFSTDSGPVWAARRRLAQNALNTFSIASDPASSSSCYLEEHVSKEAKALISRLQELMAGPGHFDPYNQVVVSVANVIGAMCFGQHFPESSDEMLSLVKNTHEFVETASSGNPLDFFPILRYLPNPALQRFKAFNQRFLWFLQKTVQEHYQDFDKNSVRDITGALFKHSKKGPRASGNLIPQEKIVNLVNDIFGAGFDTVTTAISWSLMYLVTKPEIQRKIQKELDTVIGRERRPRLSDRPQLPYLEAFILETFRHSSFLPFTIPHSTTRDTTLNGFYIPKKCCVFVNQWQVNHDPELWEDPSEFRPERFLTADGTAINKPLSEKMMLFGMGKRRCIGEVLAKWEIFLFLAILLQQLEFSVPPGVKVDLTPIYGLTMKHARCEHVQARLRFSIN

Cytochrome P450 2C19 = Cytochrome P450 2C19 (Homo sapiens, UniProt P33261); experiment: Cytochrome panel assay with activity outcomes. Panel member name: p450-cyp2c19 Compounds with AC50 equal or less than 10 uM are considered active; assay type: functional; conditions: read-out: AC50
Cytochrome P450 2C19, sequence (P33261 whole entry): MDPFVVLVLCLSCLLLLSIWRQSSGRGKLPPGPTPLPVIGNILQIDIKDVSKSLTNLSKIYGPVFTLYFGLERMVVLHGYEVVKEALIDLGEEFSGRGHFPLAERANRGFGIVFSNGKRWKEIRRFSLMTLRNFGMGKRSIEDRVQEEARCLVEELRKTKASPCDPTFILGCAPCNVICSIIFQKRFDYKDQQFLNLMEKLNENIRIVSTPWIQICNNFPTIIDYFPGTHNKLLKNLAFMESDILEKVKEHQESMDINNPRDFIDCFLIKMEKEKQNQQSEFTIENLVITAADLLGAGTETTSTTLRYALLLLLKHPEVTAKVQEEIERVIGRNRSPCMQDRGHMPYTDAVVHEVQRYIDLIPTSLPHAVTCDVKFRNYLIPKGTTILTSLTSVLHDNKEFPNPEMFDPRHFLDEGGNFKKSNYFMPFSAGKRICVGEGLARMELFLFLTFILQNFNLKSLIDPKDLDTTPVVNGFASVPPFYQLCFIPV

[1] = target: T2, Replicative DNA helicase DnaB (Mycobacterium tuberculosis, UniProt P9WMR3); experiment: DnaB intein splicing inhibitors, dose response, biochemical, cell-free fluorescence (AID 449749); assay type: functional
T2 sequence (P9WMR3 whole entry): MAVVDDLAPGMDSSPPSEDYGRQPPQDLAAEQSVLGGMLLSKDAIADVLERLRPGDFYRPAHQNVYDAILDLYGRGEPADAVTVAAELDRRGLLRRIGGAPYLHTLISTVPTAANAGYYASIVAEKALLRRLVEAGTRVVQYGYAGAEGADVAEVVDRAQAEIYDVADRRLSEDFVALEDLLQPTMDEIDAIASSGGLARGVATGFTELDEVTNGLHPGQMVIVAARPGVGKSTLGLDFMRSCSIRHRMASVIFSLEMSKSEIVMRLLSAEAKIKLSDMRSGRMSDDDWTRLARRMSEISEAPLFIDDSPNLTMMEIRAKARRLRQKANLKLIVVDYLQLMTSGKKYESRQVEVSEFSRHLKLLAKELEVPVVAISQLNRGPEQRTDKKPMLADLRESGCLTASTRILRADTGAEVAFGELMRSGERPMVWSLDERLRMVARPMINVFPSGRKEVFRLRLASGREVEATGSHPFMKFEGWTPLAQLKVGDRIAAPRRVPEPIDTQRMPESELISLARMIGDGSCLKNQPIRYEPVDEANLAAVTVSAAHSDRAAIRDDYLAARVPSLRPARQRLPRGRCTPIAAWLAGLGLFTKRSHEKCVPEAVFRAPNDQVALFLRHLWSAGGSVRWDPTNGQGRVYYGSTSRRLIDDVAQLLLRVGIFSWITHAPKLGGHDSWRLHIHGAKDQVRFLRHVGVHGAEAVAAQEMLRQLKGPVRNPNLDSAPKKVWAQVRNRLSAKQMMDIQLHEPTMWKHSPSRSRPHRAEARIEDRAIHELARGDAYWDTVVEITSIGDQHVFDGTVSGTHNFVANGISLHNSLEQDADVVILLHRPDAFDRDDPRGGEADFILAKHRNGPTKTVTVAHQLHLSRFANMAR

Protein RecA = target: T3, Protein RecA (Mycobacterium tuberculosis, UniProt P9WHJ3); experiment: Fluorescence Cell-Free Homogeneous Dose Retest to Identify Inhibitors of RecA-Intein Splicing Activity. [Related pubchem assays (depositor defined):AID2097, AID2223, AID489010, AID492950]; assay type: functional
T3 sequence (P9WHJ3 whole entry): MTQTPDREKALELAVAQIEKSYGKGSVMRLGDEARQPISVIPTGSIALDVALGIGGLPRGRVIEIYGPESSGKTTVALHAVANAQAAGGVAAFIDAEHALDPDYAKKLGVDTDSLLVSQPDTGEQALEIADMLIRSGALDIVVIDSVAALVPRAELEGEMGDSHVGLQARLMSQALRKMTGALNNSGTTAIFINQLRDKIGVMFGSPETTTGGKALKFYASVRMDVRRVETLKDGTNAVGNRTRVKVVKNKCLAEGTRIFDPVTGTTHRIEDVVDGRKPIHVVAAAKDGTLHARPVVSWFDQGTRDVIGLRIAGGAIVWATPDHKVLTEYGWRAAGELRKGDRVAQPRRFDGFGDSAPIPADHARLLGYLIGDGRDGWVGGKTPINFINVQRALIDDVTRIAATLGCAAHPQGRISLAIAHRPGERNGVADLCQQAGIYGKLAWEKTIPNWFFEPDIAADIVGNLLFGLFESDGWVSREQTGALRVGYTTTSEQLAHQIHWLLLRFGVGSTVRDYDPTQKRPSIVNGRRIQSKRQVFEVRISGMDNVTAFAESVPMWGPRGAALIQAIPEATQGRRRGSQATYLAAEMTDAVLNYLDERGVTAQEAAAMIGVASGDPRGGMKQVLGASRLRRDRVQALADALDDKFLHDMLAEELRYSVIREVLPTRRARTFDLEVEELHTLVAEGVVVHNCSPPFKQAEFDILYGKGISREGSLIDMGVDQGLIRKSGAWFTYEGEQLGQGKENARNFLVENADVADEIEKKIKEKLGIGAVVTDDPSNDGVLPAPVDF

INS1 = experiment: INS-1E survival protection against cytokine death – cell-based, luminescence, retest, dose response (AID 449756); assay type: functional; conditions: Rattus norvegicus;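 further: cell death triggered by IL-1 beta plus TNF-alpha plus IFN-gamma mixture; protective hits raise ATP signal compared with cytokine alone wells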
Cytochrome P450 3A4 = Cytochrome P450 3A4 (Homo sapiens, UniProt P08684);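 further: CYP3A4 tested as one member of a cytochrome P450 panel screen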
Cytochrome P450 3A4, sequence (P08684 whole entry): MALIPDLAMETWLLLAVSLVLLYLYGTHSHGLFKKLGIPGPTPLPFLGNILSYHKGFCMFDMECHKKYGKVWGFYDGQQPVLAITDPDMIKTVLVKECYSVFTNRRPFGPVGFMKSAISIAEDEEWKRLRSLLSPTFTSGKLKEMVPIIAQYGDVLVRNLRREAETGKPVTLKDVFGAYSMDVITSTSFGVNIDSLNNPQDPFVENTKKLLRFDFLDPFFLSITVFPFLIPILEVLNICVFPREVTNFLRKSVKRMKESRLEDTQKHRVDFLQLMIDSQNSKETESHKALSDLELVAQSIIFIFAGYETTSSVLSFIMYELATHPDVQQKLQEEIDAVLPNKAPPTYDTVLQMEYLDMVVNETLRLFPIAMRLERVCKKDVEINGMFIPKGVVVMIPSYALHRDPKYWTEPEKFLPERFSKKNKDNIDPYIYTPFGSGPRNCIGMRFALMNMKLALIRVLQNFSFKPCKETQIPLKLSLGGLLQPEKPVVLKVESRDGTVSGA

Cytochrome P450 2C9 = Cytochrome P450 2C9 (Homo sapiens, UniProt P11712)
Cytochrome P450 2C9, sequence (P11712 whole entry): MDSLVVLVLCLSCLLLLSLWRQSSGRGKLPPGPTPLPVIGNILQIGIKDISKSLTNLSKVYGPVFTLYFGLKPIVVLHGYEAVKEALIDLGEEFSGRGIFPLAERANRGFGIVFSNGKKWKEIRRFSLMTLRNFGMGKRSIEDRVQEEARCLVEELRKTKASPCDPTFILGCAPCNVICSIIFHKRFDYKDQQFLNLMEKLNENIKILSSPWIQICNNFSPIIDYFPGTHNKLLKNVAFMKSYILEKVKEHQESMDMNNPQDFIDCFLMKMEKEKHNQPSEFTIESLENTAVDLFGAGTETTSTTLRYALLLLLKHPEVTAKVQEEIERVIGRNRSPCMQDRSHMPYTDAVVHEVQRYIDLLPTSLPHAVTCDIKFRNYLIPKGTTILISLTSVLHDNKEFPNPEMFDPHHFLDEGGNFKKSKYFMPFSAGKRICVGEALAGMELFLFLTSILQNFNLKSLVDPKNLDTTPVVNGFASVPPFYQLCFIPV

[2] = target: T4, Corticotropin-releasing factor receptor 2/Corticotropin-releasing factor-binding protein (Homo sapiens, UniProt P24387+Q13324); experiment: Dose Response confirmation of uHTS hits for small molecule antagonists of the CRF-binding protein and CRF-R2 receptor complex.; assay type: functional; conditions: read-out: IC50_Mean
T4 sequence (Q13324 whole entry): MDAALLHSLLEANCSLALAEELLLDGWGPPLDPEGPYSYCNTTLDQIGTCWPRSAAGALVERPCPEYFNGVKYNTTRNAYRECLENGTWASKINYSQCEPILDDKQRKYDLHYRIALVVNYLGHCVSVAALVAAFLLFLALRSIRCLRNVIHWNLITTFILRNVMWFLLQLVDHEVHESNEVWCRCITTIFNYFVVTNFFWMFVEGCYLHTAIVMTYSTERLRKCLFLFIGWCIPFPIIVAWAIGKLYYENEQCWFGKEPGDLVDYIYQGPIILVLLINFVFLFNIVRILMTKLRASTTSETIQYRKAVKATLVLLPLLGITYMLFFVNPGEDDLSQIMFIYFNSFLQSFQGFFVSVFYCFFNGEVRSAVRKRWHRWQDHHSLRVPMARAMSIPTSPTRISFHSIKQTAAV
T4 sequence (P24387 whole entry): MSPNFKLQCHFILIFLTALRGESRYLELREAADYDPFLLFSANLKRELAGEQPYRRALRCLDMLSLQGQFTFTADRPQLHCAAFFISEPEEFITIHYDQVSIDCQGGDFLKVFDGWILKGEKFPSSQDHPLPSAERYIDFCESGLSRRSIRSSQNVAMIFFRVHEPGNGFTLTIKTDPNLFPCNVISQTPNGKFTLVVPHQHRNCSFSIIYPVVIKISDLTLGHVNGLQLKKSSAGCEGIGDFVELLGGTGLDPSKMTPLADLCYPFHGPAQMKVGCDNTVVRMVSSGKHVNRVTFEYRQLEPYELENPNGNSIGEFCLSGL

[3] = target: T4, Corticotropin-releasing factor receptor 2/Corticotropin-releasing factor-binding protein; experiment: activators of CRF receptor 2 with binding protein – uHTS hits, confirmation (AID 602473); assay type: functional; conditions: read-out: EC50_Mean
Cytochrome P450 2D6 = Cytochrome P450 2D6 (Homo sapiens, UniProt P10635);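 further: CYP2D6 member of a cytochrome P450 panel assay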
Cytochrome P450 2D6, sequence (P10635 whole entry): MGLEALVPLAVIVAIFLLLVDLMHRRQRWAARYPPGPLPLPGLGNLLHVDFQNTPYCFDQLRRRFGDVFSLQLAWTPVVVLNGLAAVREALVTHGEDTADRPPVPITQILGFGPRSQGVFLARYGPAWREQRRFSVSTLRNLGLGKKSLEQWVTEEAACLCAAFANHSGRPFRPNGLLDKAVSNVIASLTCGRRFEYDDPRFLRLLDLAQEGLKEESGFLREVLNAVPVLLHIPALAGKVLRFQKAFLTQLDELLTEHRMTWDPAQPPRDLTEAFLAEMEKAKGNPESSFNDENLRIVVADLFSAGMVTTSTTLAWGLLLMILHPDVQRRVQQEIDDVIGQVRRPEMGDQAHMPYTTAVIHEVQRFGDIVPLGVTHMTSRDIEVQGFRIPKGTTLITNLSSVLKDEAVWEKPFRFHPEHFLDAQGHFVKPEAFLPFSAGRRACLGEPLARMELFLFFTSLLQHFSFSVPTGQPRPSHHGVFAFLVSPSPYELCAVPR

Compound | AC50 (Cytochrome P450 1A2) | AC50 (Cytochrome P450 2C19) | AC50 [1] | EC50 (Protein RecA) | AC50 (Cytochrome P450 3A4) | also measured
O=c1c(-c2cc(F)cc(F)c2)nc2cnc(N3CCNCC3)nc2n1Cc1cccs1 | 2.51 µM (inconclusive) | 39.8 µM (inconclusive) | – | – | – | –
CCOc1ccccc1N1CCN(C(=O)c2ccc(-c3ccc(OC(C)=O)cc3)cc2)CC1 | – | – | 2.31 µM (active) | 58.4 µM (active) | – | –
CCOC(=O)Cc1n[nH]c2c1C(c1ccoc1)C(C#N)=C(N)O2 (centres undefined) | – | – | 18.4 µM (active) | 3.42 µM (active) | – | –
COc1cccc(OC(=O)CSc2nnc(-c3ccccc3Br)o2)c1 | – | – | 3.09 µM (active) | 5.7 µM (active) | – | –
Cc1nn(-c2ccccc2)c(C)c1NC(=O)COc1ccc(Br)cc1Cl | – | – | – | – | – | AC50 (INS1): 34.2 µM (active)
O=[N+]([O-])c1ccc2c(c1)N=C1O[C@H](c3ccc([C@H]4OC5=Nc6cc([N+](=O)[O-])ccc6NC5=C4O)cc3)C(O)=C1N2 | 3.16 µM (inconclusive) | – | – | – | 3.16 µM (inconclusive) | –
CCN1C(=O)C(O)(CC(=O)/C=C/C=C/c2ccccc2)c2ccccc21 (centres undefined) | – | 35.5 µM (inconclusive) | – | – | 17.8 µM (inconclusive) | AC50 (Cytochrome P450 2C9): 0.141 µM (inconclusive)
COc1ccc(-c2ccnc(SCC(=O)N3CCN(c4ccccc4)CC3)n2)cc1 | – | – | – | – | – | AC50 (INS1): > 260 µM (inactive); IC50 [2]: > 47.1 µM (inactive); EC50 [3]: > 53 µM (inactive)
CCC(C)NC(=O)c1ccccc1NC(=O)Nc1ccccc1 (centres undefined) | 3.16 µM (inconclusive) | – | – | – | – | AC50 (Cytochrome P450 2C9): 15.8 µM (inconclusive)
COc1cccc(/C=N\NC(=O)c2cc(OCC(F)(F)F)ccc2OCC(F)(F)F)c1 | – | 0.891 µM (inconclusive) | – | – | 35.5 µM (inconclusive) | –
COc1cc(OC)cc(C2C(C#N)=C(N)Oc3[nH]nc(-c4cccnc4)c32)c1 (centres undefined) | – | – | 18 µM (active) | 2.13 µM (active) | – | –
CNc1ncncc1-c1ccccc1OC | 1.58 µM (inconclusive) | – | – | – | 0.251 µM (inconclusive) | –
O=c1c2ccccc2nc(N2CCCC2)n1-c1ccc(Cl)cc1 | – | 1.26 µM (inconclusive) | – | – | – | IC50 [2]: > 47.1 µM (inactive); AC50 (Cytochrome P450 2D6): 10 µM (inconclusive); EC50 [3]: > 53 µM (inactive)
